Values of other authors as cited in US4356265A, “Method for the production of antibiotic C-15003 P-3” (priority 1979, dated 1982).
Values after ≈ are worked out from the molar mass of the structure shown. Like-named read-outs stand apart in the source and are kept apart here.

Tests used:
Proteus mirabilis = details: 0.02 ml of 300-μg/ml solution per disc, Trypticase Soy Agar
Talaromyces avellaneus = details: agar plate, pH 7.0
P388 leukemia cells = details: 0.00625 mg/kg/day, intraperitoneally, 9 consecutive days; 1×10^6 cells/animal i.p.
[1] = test system: Helminthosporium sigmoideum var. irregulare; details: IFO 5273, PSA, 48 h; 0.02 ml of 1000 μg/ml
Pseudomonas aeruginosa = details: 0.02 ml of 300-μg/ml solution per disc, Trypticase Soy Agar
Staphylococcus aureus = details: 0.02 ml of 300-μg/ml solution per disc, Trypticase Soy Agar
Rhodotorula rubra = details: IFO 0907, PSA, 48 h; 0.02 ml of 1000 μg/ml
Sclerotinia sclerotiorum = details: IFO 9395, PSA, 90 h; 0.02 ml of 1000 μg/ml
[2] = test system: Fusarium oxysporum f. cucumerinum; details: PSA, 48 h; 0.02 ml of 1000 μg/ml
[3] = test system: Trichophyton mentagrophytes; details: IFO 7522, GB, 48 h; 0.02 ml of 1000 μg/ml
Elsinoe fawcetti = details: IFO 8417, PSA, 90 h; 0.02 ml of 1000 μg/ml
Diaporthe citri = details: IFO 9170, PSA, 48 h; 0.02 ml of 1000 μg/ml
Tetrahymena pyriformis W = details: pH 7.0, 28° C., 44 to 48 hours
Klebsiella pneumoniae = details: 0.02 ml of 300-μg/ml solution per disc, Trypticase Soy Agar
Bacillus cereus = details: 0.02 ml of 300-μg/ml solution per disc, Trypticase Soy Agar
Mycobacterium avium = details: 0.02 ml of 300-μg/ml solution per disc, Trypticase Soy Agar
Serratia, marcescens = details: 0.02 ml of 300-μg/ml solution per disc, Trypticase Soy Agar
Gibberella zeae = details: IFO 8850, PSA, 48 h; 0.02 ml of 1000 μg/ml
Aspergillus niger = details: IFO 4066, PSA, 48 h; 0.02 ml of 1000 μg/ml
Candida utilis = details: IFO 0619, GB, 48 h; 0.02 ml of 1000 μg/ml
Rhizopus nigricans = details: IFO 6188, PSA, 48 h; 0.02 ml of 1000 μg/ml
Pythium aphanidermatam = details: IFO 7030, PSA, 48 h; 0.02 ml of 1000 μg/ml
Candida albicans = details: IFO 0583, GB, 48 h; 0.02 ml of 1000 μg/ml
Cochlioborus miyabeanus = details: IFO 5277, PSA, 48 h; 0.02 ml of 1000 μg/ml
Bacillus subtilis = details: 0.02 ml of 300-μg/ml solution per disc, Trypticase Soy Agar
Trichophyton rubrum = details: IFO 5467, GB, 48 h; 0.02 ml of 1000 μg/ml
Escherichia coli = details: 0.02 ml of 300-μg/ml solution per disc, Trypticase Soy Agar
Alternaria kikuchiana = details: IFO 7515, PSA, 48 h; 0.02 ml of 1000 μg/ml
Penicillium chrysogenum = details: IFO 4626, PSA, 48 h; 0.02 ml of 1000 μg/ml
Pellicularia sasakii = details: IFO 9253, PSA, 48 h; 0.02 ml of 1000 μg/ml
Cryptococcus neoformans = details: IFO 0410, GB, 48 h; 0.02 ml of 1000 μg/ml
Fusicladium levieri = details: IFO 6477, PSA, 90 h; 0.02 ml of 1000 μg/ml
Proteus vulgaris = details: 0.02 ml of 300-μg/ml solution per disc, Trypticase Soy Agar
Pyricularia oryzae = details: PSA, 48 h; 0.02 ml of 1000 μg/ml
Saccharomyces cerevisiae = details: IFO 0209, PSA, 48 h; 0.02 ml of 1000 μg/ml
Venturia pirina = details: IFO 6189, PAA, 48 h; 0.02 ml of 1000 μg/ml
mice = details: intraperitoneal injection
Guignardia laricina = details: IFO 7888, PSA, 48 h; 0.02 ml of 1000 μg/ml
Botrytis cinerea = details: PSA, 48 h; 0.02 ml of 1000 μg/ml

COc1cc2cc(c1Cl)N(C)C(=O)CC(OC(=O)C(C)C)C1(C)OC1C(C)C1CC(O)(NC(=O)O1)C(OC)C=CC=C(C)C2 (stereo not shown) [Antibiotic C-15003 P-3]
antibacterial activity (Proteus mirabilis): no activity | minimal inhibitory concentration (Talaromyces avellaneus): 3 µg/mL (≈ 4.72 µM) | life-span-extending ratio (P388 leukemia cells): 200% | Inhibition diameter [1]: 55 mm | antibacterial activity (Pseudomonas aeruginosa): no activity | antibacterial activity (Staphylococcus aureus): no activity | Solubility (in benzene, ether): Sparingly soluble | Solubility (in chloroform, ethyl acetate, acetone, ethanol, methanol, pyridine, tetrahydrofuran, dimethylsulfoxide): Soluble | Solubility (in petroleum ether, n-hexane, water): Insoluble | Inhibition diameter (Rhodotorula rubra): 28 mm | Inhibition diameter (Sclerotinia sclerotiorum): 65 mm | Inhibition diameter [2]: 20 mm | Inhibition diameter [3]: 38 mm | Inhibition diameter (Elsinoe fawcetti): 55 mm | Inhibition diameter (Diaporthe citri): 55 mm | growth inhibition (concentration at which it occurs) (Tetrahymena pyriformis W): 1 µg/mL | antibacterial activity (Klebsiella pneumoniae): no activity | antibacterial activity (Bacillus cereus): no activity | antibacterial activity (Mycobacterium avium): no activity | antibacterial activity (Serratia, marcescens): no activity | Inhibition diameter (Gibberella zeae): 37 mm | Inhibition diameter (Aspergillus niger): 0 mm | Inhibition diameter (Candida utilis): 0 mm | Inhibition diameter (Rhizopus nigricans): 25 mm | Inhibition diameter (Pythium aphanidermatam): 58 mm | Inhibition diameter (Candida albicans): 0 mm | Inhibition diameter (Cochlioborus miyabeanus): 60 mm | antibacterial activity (Bacillus subtilis): no activity | Inhibition diameter (Trichophyton rubrum): 38 mm | antibacterial activity (Escherichia coli): no activity | Inhibition diameter (Alternaria kikuchiana): 38 mm | Inhibition diameter (Penicillium chrysogenum): 35 mm | Inhibition diameter (Pellicularia sasakii): 50 mm | Inhibition diameter (Cryptococcus neoformans): 43 mm | Inhibition diameter (Fusicladium levieri): 68 mm | antibacterial activity (Proteus vulgaris): no activity | Inhibition diameter (Pyricularia oryzae): 53 mm | Inhibition diameter (Saccharomyces cerevisiae): 0 mm | Inhibition diameter (Venturia pirina): 50 mm | LD0 (mice): 0.313 mg/kg | LD100 (mice): 0.625 mg/kg | Inhibition diameter (Guignardia laricina): 12 mm | Inhibition diameter (Botrytis cinerea): 48 mm
